Measurements taken from paper PMC3274592 (Archives of Biochemistry and Biophysics, 2011).

Columns and labels:
[1] = target: CYP158A1 (Streptomyces coelicolor, UniProt Q9KZF5, K90I); experiment: UV-vis difference spectral titration; assay type: binding
[2] = target: CYP158A1 (Streptomyces coelicolor, UniProt Q9KZF5); experiment: UV-vis difference spectral titration; assay type: binding
CYP158A1 (Streptomyces coelicolor, UniProt Q9KZF5), sequence (Q9KZF5 whole entry): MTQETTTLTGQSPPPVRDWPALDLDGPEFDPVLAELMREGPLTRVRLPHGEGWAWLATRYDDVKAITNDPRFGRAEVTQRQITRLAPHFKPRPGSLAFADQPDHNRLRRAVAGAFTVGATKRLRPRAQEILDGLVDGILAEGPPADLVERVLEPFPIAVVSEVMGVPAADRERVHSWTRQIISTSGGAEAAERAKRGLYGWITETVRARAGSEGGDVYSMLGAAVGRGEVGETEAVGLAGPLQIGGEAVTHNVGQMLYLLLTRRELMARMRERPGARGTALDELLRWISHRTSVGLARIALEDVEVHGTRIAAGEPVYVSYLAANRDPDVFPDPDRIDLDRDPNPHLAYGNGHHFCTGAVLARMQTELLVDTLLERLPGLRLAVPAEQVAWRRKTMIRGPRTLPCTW

CYP158A1 (Streptomyces coelicolor, UniProt Q9KZF5, K90I), sequence (Q9KZF5 whole entry K90I): as the sequence (Q9KZF5 whole entry) above, with K90I counted along it

O=C1C(O)=CC(=O)c2c(O)cc(O)cc21 [flaviolin]
Kd [1]: 16.9 µM
Kd [2]: 10.5 µM
